Source: patent US7524975B2, “Peroxisome proliferator activated receptor ligand and process for producing the same” (Kaneka Corporation, priority 2001, dated 2009)

Experiments:
[1] = biological target: T1, mouse PPARγ ligand-binding site (Mus musculus, UniProt P37238); assay: Measurement of PPARγ ligand activity (GAL4 chimera luciferase reporter in CV-1 cells); assay type: cell-based; conditions: for PPARγ ligand activity: CV-1 cells, 24 hours, specific activity relative to untreated control (DMSO) = 1.00; for PPARγ ligand activity compared with positive control troglitazone (in words): compared with 0.5 μM troglitazone
T1 construct: expressed in transfected cells; host or cells: CV-1 cells (African green monkey kidney)
T1 sequence (P37238 174-475 isoform P37238-2): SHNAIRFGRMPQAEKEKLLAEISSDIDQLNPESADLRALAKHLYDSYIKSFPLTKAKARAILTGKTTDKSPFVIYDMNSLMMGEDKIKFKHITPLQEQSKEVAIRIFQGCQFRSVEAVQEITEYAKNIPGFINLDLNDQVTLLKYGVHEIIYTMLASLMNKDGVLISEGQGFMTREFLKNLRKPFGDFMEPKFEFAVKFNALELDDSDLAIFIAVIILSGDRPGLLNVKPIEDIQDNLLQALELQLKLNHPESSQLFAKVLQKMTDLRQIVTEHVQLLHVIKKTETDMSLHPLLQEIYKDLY
Protocol: CV-1 cells (cultured cells derived from the kidney of a male African green monkey) were inoculated on a 96-well culture plate in a concentration of 6×10^3 cells/well and incubated at 37° C. in 5% CO2 for 24 hours. The medium used was DMEM (Dulbecco's Modified Eagle Medium: GIBCO) containing 10% FBS (fetal bovine serum), 10 ml/L penicillin and streptomycin solution (containing 5000 IU/ml and 5,000 μg/ml, respectively: GIBCO) and 37 mg/L ascorbic acid (Wako Pure Chemical Industries, Ltd.). […] 4xUASg-luc is a reporter plasmid comprising four GAL4 response sequences (UASg) integrated into a region upstream of a luciferase gene. At about 24 hours after transfection, the medium was exchanged with a sample-containing medium, and the cells were cultured for 24 hours (n=4). The sample-containing medium was prepared by dissolving a sample in dimethyl sulfoxide (DMSO) in an amount of 1/1000 based on the medium, while for the untreated control, DMSO in an amount of 1/1000 based on the medium was used in place of the sample. After the cells were washed with a Ca- and Mg-containing phosphate buffered physiological saline (PBS+), LucLite (Packard) was added thereto, and the intensity of luciferase luminescence was measured with a TopCount microplate scintillation/luminescence counter (Packard).
As the control group, pM (plasmid from which the PPARγ ligand-binding site gene was removed) was measured in place of pM-mPPARγ in the same manner as for the measurement group. For each sample, the ratio (measurement group/control group) of the average luminescence intensity of the measurement group (n=4) to that of the control group was calculated, and the specific activity relative to the activity of the untreated control was regarded as the PPARγ ligand activity of the sample.

KK-Ay mouse [2] = assay: Effect on type 2 diabetes mellitus model mouse: blood glucose level during mixed-feed administration; assay type: in vivo; conditions: KK-Ay mice; for Blood glucose level: means±SE, n=5
Protocol: Using a KK-Ay mouse which is genetically obese and type 2 diabetic animal, the effect of Compound 2 on diabetes mellitus was evaluated.
Compound 2 was prepared in the same procedure as in Example 1 and added to the basal diet such that the content of Compound 2 in a final feed was 0.1%. On the day before administration and 4 days after administration, a small amount of blood was collected from a mouse tail vein, and measured for its blood glucose level by a simple blood glucose measuring instrument Glutest Ace (Sanwa Kagaku Kenkyusho Co., Ltd.).

KK-Ay mouse [3] = assay: Glucose tolerance test (sucrose loading) in KK-Ay mice; assay type: in vivo; conditions: for Blood glucose level: oral pioglitazone 20 mg/kg or Compound 2 100 mg/kg
Protocol: After the mixed feed was given for 1 week, the mice were fasted overnight and then subjected to a glucose tolerance test. […] To the non-additive group (control group), 0.5% CMC-Na solution was administered in an amount of 5 ml/kg. At a time of 30 minutes after administration, the mice were loaded with 2 g/kg of 40% sucrose solution. Before the sugar loading and at a time of 30 minutes, 1 hour and 2 hours after the sugar loading, a small amount of blood was collected from a mouse tail vein, and measured for its blood glucose level by a simple blood glucose measuring instrument Glutest Ace (Sanwa Kagaku Kenkyusho Co., Ltd.).

[4] = 4 days after administration, in feed: pioglitazone 0.02%, Compound 2 0.1%
[5] = 30 minutes after sugar loading (2 g/kg sucrose)
[6] = 1 hour after sugar loading (2 g/kg sucrose)
[7] = before sugar loading, fasted KK-Ay mice after 1 week mixed feed

| Compound | PPARγ ligand activity ([1]; added concentration 2 μg/ml) | PPARγ ligand activity ([1]; added concentration 5 μg/ml) | PPARγ ligand activity ([1]; added concentration 10 μg/ml) | PPARγ ligand activity compared with positive control troglitazone (in words) [1] | also measured |
| --- | --- | --- | --- | --- | --- |
| COc1cc2oc(=O)c(-c3ccc(O)cc3O)cc2c(OC)c1CC=C(C)C [Compound 2, Glycyrin] | 2.81 | 3.34 | 3.67 | – | Blood glucose level (KK-Ay mouse [2]; [4]): 278 ± 14 mg/dL; Blood glucose levels on the fourth day after the administration (in words) (KK-Ay mouse [2]; 0.1% in feed): statistically significantly reduced; Blood glucose level (KK-Ay mouse [2]; before administration): 474 ± 27 mg/dL; Blood glucose level (KK-Ay mouse [3]; [5]): 225 ± 27 mg/dL; Blood glucose level (KK-Ay mouse [3]; [6]): 129 ± 8 mg/dL; Blood glucose level (KK-Ay mouse [3]; 2 hour after sugar loading (2 g/kg sucrose)): 100 ± 3 mg/dL; Increase in blood glucose levels after the sugar loading (in words) (KK-Ay mouse [3]; KK-Ay mice, 100 mg/kg oral): statistically significantly inhibited a rapid increase in blood glucose levels after the sugar loading; Blood glucose level (KK-Ay mouse [3]; [7]): 78 ± 4 mg/dL |
| CC1(C)C=Cc2c(ccc(C3COc4c(ccc5c4C=CC(C)(C)O5)C3)c2O)O1 (stereo not drawn) [Compound 20, Hispaglabridin B] | 1.04 | 1.45 | 1.94 | slightly weaker than that of a positive control containing 0.5 μM troglitazone | – |
| COc1ccc(C2COc3c(ccc4c3C=CC(C)(C)O4)C2)c(O)c1 (stereo not drawn) [Compound 21, 4′-O-Methylglabridin] | 1.25 | 1.55 | 2.13 | – | – |
| COc1ccc(C2COc3c(ccc4c3C=CC(C)(C)O4)C2)c(O)c1O (stereo not drawn) [Compound 22, 3′-Hydroxyl-4′-O-methylglabridin] | 1.61 | 2.46 | 1.69 | – | – |
| CC(C)=CCc1cc([C@@H]2CC(=O)c3ccc(O)c(CC=C(C)C)c3O2)ccc1O [Compound 23, Glabrol] | 1.85 | 3.48 | 3.74 | – | – |
| C=CC(C)(C)c1cc(/C=C/C(=O)c2ccc(O)cc2)c(OC)cc1O [Compound 24, Licochalcone A] | 4.02 | 4.14 | 4.16 | – | – |
| CCc1ccc(CCOc2ccc(CC3SC(=O)NC3=O)cc2)nc1 (stereo not drawn) [Pioglitazone, pioglitazone, reference compound] | – | – | – | – | Blood glucose level (KK-Ay mouse [2]; [4]): 191 ± 6 mg/dL; Blood glucose level (KK-Ay mouse [2]; before administration): 486 ± 26 mg/dL; Blood glucose level (KK-Ay mouse [3]; [5]): 158 ± 11 mg/dL; Blood glucose level (KK-Ay mouse [3]; [6]): 136 ± 5 mg/dL; Blood glucose level (KK-Ay mouse [3]; [7]): 89 ± 3 mg/dL |
| O=c1c(O)c(-c2ccc(O)c(O)c2)oc2cc(O)cc(O)c12 [Quercetin, quercetin, reference compound] | 1.15 | 1.72 | 1.70 | not recognized to have a PPARγ ligand activity | – |

The next lines start with results.

| PPARγ ligand activity ([1]; added concentration 2 μg/ml) | PPARγ ligand activity ([1]; added concentration 5 μg/ml) | PPARγ ligand activity ([1]; added concentration 10 μg/ml) | Compound | PPARγ ligand activity compared with positive control troglitazone (in words) [1] | also measured |
| --- | --- | --- | --- | --- | --- |
| 1.27 | 1.93 | 1.61 | COc1c(/C=C/C(=O)c2ccc(O)cc2)ccc(O)c1O [Compound 25, Licochalcone B] | slightly weaker than that of a positive control containing 0.5 μM troglitazone | – |
| 1.84 | 2.20 | 3.71 | COc1c(/C=C/C(=O)c2ccc(O)cc2)ccc(O)c1CC=C(C)C [Compound 26, Licochalcone C] | – | – |
| 1.44 | 2.49 | 3.05 | CC(C)=CCc1cc(C(=O)CC(=O)c2cc(CC=C(C)C)c(O)cc2O)ccc1O [Compound 27, Glycyrdione A] | – | – |
| 0.96 | 1.48 | 2.04 | CC(C)=CCc1cc(C(=O)CC(=O)c2cc3c(cc2O)OC(C)(C)C=C3)ccc1O [Compound 28, Glycyrdione C] | slightly weaker than that of a positive control containing 0.5 μM troglitazone | – |
| 0.97 | 0.95 | 0.97 | CC1(C)[C@@H](O)CC[C@]2(C)[C@H]3C(=O)C=C4[C@@H]5C[C@@](C)(C(=O)O)CC[C@]5(C)CC[C@@]4(C)[C@]3(C)CC[C@@H]12 [Glycyrrhetinic acid, glycyrrhetinic acid, reference compound] | not recognized to have a PPARγ ligand activity | – |
